Measurements published in paper PMC4232785, “RP-HPTLC Retention Data in Correlation with the In-silico ADME Properties of a Series of s-triazine Derivatives” (Iranian Journal of Pharmaceutical Research : IJPR, 2014).

Experiment: RP-HPTLC retention (RM0, lipophilicity parameter) on RP-18W/UV254 plates
Assay type: physicochemical
Description: Precoated RP-18W/UV254 plates (Macherey-Nagel GmbH and Co., Düren, Germany) were used for RP HPTLC analysis. Investigated solvent mixtures used as mobile phases: acetone-water (φ = 0.5 - 0.8; v/v), acetonitrile-water (φ = 0.5 - 0.9; v/v), methanol-water (φ = 0.65 - 0.95; v/v), 2-propanol-water (φ = 0.4 - 0.7; v/v), tetrahydrofuran-water (φ = 0.5 - 0.75; v/v).
The investigated compounds were dissolved in an appropriate solvent, methanol, 1 mg mL^-1) and the solutions (0.2 μL) were separately spotted into the plates. All the reagents used were of analytical purity. The plates were developed by the ascending technique at room temperature without previous saturation of the chamber with mobile phase. All measurements were carried out at ambient temperature. After drying of the plates, the spots were visualized under UV light at λ = 254 nm. RF values were calculated as average from three measurements for each solute-mobile phase combination. For subsequent calculations mean RM values were used; these were calculated by using the formula:
Equation (1) RM=log(1/RF-1)
The calculated RM values for different concentrations of organic solvent were used to check the linearity of their relationship with the volume fraction of organic modifier according to the equation ([23]):
Where φ is the volume fraction of organic solvent in the mobile phase, RM^0 is the intercept obtained by extrapolation to φ = 0% of modifier, and S is the slope of the linear plot. Equations (1) and (2) served for deriving data for further QSAR studies.

[1] = RP-18W/UV254, 2-propanol – water (φ = 0.4 - 0.7)
[2] = RP-18W/UV254, acetone – water (φ = 0.5 - 0.8)
[3] = RP-18W/UV254, acetonitrile – water (φ = 0.5 - 0.9)
[4] = RP-18W/UV254, methanol – water (φ = 0.65 - 0.95)
[5] = RP-18W/UV254, tetrahydrofuran - water (φ = 0.5 - 0.75)

Structure (SMILES) | RM^0 (retention parameter, intercept at φ = 0% modifier) [1] | RM^0 (retention parameter, intercept at φ = 0% modifier) [2] | RM^0 (retention parameter, intercept at φ = 0% modifier) [3] | RM^0 (retention parameter, intercept at φ = 0% modifier) [4] | RM^0 (retention parameter, intercept at φ = 0% modifier) [5]
CN(c1nc(Cl)nc(N(C)C2CCCCC2)n1)C1CCCCC1 [III.2] | 2.769 | 4.626 | 3.284 | 3.998 | 3.611
Clc1nc(NC2CCCCC2)nc(NC2CCCCC2)n1 [III.1] | 2.251 | 4.118 | 2.356 | 3.440 | 3.426
CC1(Nc2nc(Cl)nc(Cl)n2)CCCCCC1 [IV.3] | 1.779 | 2.257 | 1.956 | 1.756 | 2.222
CC(Nc1nc(Cl)nc(NC(C)c2ccc(Cl)cc2)n1)c1ccc(Cl)cc1 (centres unmarked) [I.3] | 2.617 | 3.839 | 2.887 | 3.976 | 3.538
Cc1ccc(C(C)Nc2nc(Cl)nc(NC(C)c3ccc(C)cc3)n2)cc1 (centres unmarked) [I.2] | 2.525 | 3.580 | 2.786 | 3.188 | 3.567
Clc1nc(NC2CCCCC2)nc(N(c2ccccc2)C2CCCCC2)n1 [III.3] | 2.691 | 4.019 | 3.101 | 3.980 | 3.387
CC1(Nc2nc(Cl)nc(NC3(C)CCCC3)n2)CCCC1 [II.1] | 2.183 | 3.743 | 2.388 | 3.181 | 3.289
CC(Nc1nc(Cl)nc(NC(C)c2ccccc2)n1)c1ccccc1 (centres unmarked) [I.1] | 1.900 | 3.185 | 2.110 | 2.457 | 3.439
CC1(Nc2nc(Cl)nc(Cl)n2)CCCC1 [IV.1] | 1.118 | 1.672 | 1.497 | 1.526 | 1.733
CC1(Nc2nc(Cl)nc(NC3(C)CCCCCC3)n2)CCCCCC1 [II.3] | 3.013 | 4.218 | 3.000 | 4.530 | 4.071
CC1(Nc2nc(Cl)nc(NC3(C)CCCCC3)n2)CCCCC1 [II.2] | 2.384 | 3.935 | 2.753 | 3.320 | 3.401
CC(Nc1nc(Cl)nc(NC(C)c2ccc(Br)cc2)n1)c1ccc(Br)cc1 (centres unmarked) [I.4] | 2.764 | 4.303 | 2.896 | 4.407 | 3.351
Clc1nc(N(c2ccccc2)C2CCCCC2)nc(N(c2ccccc2)C2CCCCC2)n1 [III.4] | 2.747 | 4.693 | 3.556 | 5.295 | 3.902
